Source: the NIST ThermoML archive (doi:10.1016/j.jct.2016.04.003)

Assay: refractive index (Na D-line) (dimensionless); xn = mol fraction of the nth substance listed
Conditions: 99 kPa, Liquid, Standard Abbe refractometry

CCCC[n+]1ccccc1.F[B-](F)(F)F [1-butylpyridinium tetrafluoroborate] + O
refractive index
Conditions | 293.15 K | 303.15 K | 313.15 K | 323.15 K
x1 = 0.0165 | 1.34819 | 1.34644 | 1.34468 | 1.34263
x1 = 0.0379 | 1.36348 | 1.3612 | 1.35896 | 1.35635
x1 = 0.0863 | 1.38639 | 1.38392 | 1.38128 | 1.37835
x1 = 0.101 | 1.39141 | 1.38881 | 1.38613 | 1.38331
x1 = 0.134 | 1.40063 | 1.39805 | 1.39527 | 1.3926
x1 = 0.243 | 1.41888 | 1.41639 | 1.41376 | 1.41106
x1 = 0.289 | 1.42371 | 1.42115 | 1.41853 | 1.41585
x1 = 0.3456 | 1.42826 | 1.42571 | 1.42304 | 1.42041
x1 = 0.4217 | 1.43287 | 1.4303 | 1.42763 | 1.42496
x1 = 0.5485 | 1.43815 | 1.43558 | 1.43295 | 1.43025
x1 = 0.6029 | 1.43987 | 1.43726 | 1.43463 | 1.43194
x1 = 0.7232 | 1.44283 | 1.44021 | 1.43755 | 1.43489
x1 = 0.8005 | 1.44431 | 1.44168 | 1.43905 | 1.43637
x1 = 0.8575 | 1.44526 | 1.44261 | 1.43999 | 1.43731
x1 = 0.9315 | 1.44633 | 1.44368 | 1.44105 | 1.43838
x1 = 1 | 1.44719 | 1.44454 | 1.44191 | 1.43923

CCC[n+]1ccccc1.F[B-](F)(F)F [1-propylpyridinium tetrafluoroborate] + O
refractive index
Conditions | 293.15 K | 303.15 K | 313.15 K | 323.15 K
x1 = 0.0185 | 1.34795 | 1.34613 | 1.34407 | 1.34187
x1 = 0.0287 | 1.3549 | 1.35282 | 1.35055 | 1.34817
x1 = 0.0466 | 1.36529 | 1.36297 | 1.36049 | 1.35792
x1 = 0.0766 | 1.37888 | 1.37637 | 1.37374 | 1.37105
x1 = 0.0964 | 1.38592 | 1.38337 | 1.38071 | 1.37801
x1 = 0.2011 | 1.40941 | 1.40683 | 1.40419 | 1.40152
x1 = 0.2858 | 1.41984 | 1.41727 | 1.41465 | 1.41202
x1 = 0.3993 | 1.42862 | 1.42604 | 1.42343 | 1.42083
x1 = 0.4979 | 1.4337 | 1.4311 | 1.42848 | 1.42588
x1 = 0.5772 | 1.43677 | 1.43415 | 1.43152 | 1.42891
x1 = 0.6015 | 1.43757 | 1.43495 | 1.43233 | 1.42971
x1 = 0.6695 | 1.43957 | 1.43694 | 1.4343 | 1.43169
x1 = 0.7309 | 1.44111 | 1.43847 | 1.43583 | 1.43321
x1 = 0.7771 | 1.44212 | 1.43948 | 1.43685 | 1.43422
x1 = 0.8395 | 1.44335 | 1.4407 | 1.43806 | 1.43543
x1 = 0.9054 | 1.44449 | 1.44183 | 1.43918 | 1.43656
x1 = 0.9633 | 1.44537 | 1.44271 | 1.44006 | 1.43742
x1 = 1 | 1.44588 | 1.44322 | 1.44057 | 1.43793
